Experimental data: patent US9452217B2, “Methods for potentiating immune response for the treatment of infectious diseases and cancer” (Nitor Therapeutics, priority 2013, dated 2016)

Tests used:
human TLR7 = target: T1, human TLR7 (Homo sapiens, UniProt Q9NYK1); test: TLR ligand screening: NF-κB activation (SEAP reporter) in HEK293 cells expressing TLR7; assay type: cell-based; conditions: one concentration: NTR001 10 uM, Inosine 100 uM; FIG. 2
T1 construct: expressed in transfected cells; host or cells: HEK293
T1 sequence (Q9NYK1 27-1049): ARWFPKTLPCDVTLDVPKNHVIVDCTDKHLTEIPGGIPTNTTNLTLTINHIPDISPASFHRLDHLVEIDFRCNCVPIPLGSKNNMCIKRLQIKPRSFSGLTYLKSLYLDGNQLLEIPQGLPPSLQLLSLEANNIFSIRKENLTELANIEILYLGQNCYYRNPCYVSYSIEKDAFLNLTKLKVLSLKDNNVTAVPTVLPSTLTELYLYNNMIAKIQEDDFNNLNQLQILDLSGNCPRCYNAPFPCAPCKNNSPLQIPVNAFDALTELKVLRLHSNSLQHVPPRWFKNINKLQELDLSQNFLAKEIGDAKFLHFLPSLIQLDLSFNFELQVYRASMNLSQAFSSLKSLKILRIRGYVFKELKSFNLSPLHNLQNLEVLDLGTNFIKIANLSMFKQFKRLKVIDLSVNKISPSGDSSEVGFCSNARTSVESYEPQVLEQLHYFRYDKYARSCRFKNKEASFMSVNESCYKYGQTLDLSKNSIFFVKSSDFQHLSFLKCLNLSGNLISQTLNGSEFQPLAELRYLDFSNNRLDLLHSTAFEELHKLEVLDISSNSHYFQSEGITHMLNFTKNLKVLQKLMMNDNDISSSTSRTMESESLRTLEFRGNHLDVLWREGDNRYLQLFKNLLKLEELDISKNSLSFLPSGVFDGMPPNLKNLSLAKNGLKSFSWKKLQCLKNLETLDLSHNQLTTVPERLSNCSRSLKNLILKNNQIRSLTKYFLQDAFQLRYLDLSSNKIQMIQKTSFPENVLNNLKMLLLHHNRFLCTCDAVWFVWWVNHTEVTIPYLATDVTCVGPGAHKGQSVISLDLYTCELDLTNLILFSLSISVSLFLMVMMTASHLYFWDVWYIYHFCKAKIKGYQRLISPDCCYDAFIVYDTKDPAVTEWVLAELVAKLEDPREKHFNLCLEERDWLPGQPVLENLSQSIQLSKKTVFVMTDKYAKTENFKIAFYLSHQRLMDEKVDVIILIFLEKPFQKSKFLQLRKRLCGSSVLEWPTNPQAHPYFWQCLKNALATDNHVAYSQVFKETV
Description: (§1) Method: TLR stimulation is tested by assessing NF-κB activation in HEK293 cells expressing a given TLR. The Secreted Embryonic Alkaline Phosphatase (SEAP) reporter is under the control of a promoter inducible by the transcription factor NF-κB. This reporter gene allows the monitoring of signaling through the TLR, based on the activation of NF-κB. The compounds are evaluated at one concentration and compared to control ligands. This step is performed in triplicate.

human TLR5 = target: T2, human TLR5 (Homo sapiens, UniProt O60602); test: TLR ligand screening: NF-κB activation (SEAP reporter) in HEK293 cells expressing TLR5; assay type: cell-based; conditions: one concentration: NTR001 10 uM, Inosine 100 uM; FIG. 2
T2 construct: expressed in transfected cells; host or cells: HEK293
Description: as §1

human TLR3 = target: T3, human TLR3 (Homo sapiens, UniProt O15455); test: TLR ligand screening: NF-κB activation (SEAP reporter) in HEK293 cells expressing TLR3; assay type: cell-based; conditions: one concentration: NTR001 10 uM, Inosine 100 uM; FIG. 2
T3 construct: expressed in transfected cells; host or cells: HEK293
T3 sequence (O15455 24-904): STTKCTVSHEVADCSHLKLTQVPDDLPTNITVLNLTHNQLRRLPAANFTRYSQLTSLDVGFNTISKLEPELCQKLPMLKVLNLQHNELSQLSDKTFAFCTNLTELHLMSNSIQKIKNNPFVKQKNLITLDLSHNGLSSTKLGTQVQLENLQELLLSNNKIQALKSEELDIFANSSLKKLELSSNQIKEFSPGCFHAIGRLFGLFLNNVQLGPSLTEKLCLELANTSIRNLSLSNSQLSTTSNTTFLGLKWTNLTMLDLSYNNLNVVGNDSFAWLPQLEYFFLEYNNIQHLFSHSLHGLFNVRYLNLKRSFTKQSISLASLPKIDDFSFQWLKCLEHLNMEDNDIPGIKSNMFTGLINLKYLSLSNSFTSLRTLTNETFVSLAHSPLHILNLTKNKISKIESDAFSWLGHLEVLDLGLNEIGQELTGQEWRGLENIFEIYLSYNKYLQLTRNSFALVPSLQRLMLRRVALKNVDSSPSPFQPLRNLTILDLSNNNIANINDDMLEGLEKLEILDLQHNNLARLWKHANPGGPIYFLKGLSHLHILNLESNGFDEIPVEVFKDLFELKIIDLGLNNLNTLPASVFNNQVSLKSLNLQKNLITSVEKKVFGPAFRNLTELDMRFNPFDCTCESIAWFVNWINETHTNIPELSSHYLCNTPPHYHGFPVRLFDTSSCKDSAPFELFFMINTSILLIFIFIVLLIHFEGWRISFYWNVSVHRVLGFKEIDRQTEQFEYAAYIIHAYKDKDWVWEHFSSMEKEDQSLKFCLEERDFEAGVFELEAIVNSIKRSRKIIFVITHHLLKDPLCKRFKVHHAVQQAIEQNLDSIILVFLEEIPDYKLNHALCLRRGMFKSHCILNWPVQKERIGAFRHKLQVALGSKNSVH
Description: as §1

human TLR2 = target: T4, human TLR2 (Homo sapiens, UniProt O60603); test: TLR ligand screening: NF-κB activation (SEAP reporter) in HEK293 cells expressing TLR2; assay type: cell-based; conditions: one concentration: Guanosine 100 uM, NTR001 10 uM, Inosine 100 uM; FIG. 2
T4 construct: expressed in transfected cells; host or cells: HEK293
Description: as §1

[1] = system: immune response to tetanus toxoid vaccine; test: PNPi as adjuvant in tetanus toxoid vaccine efficacy study (mouse); assay type: in vivo; conditions: mice, p.o., ELISA
B16 tumors = test: Syngeneic mouse melanoma model; assay type: in vivo, C57BL/6 mice
Description: Method: Cancer cells were injected subcutaneously in right flank of each mouse, 1×10^4 cells in 0.1 ml PBS with 20% Matrigel. Treatment with the NTR001 was initiated on day 6 after injection of tumor cells. Tumor volume and survival were recorded every 3-4 days.

[2] = system: L. monocytogenes (ATCC Strain35152, hemolytic substrain); test: Mouse model of L. monocytogenes infection; conditions: Balb/c mice infected i.v. with 1×10^6 CFU; 30 mg/kg PO or IP, 2 mg/kg drinking water; FIGS. 7 and 9

T2 sequence (O60602 21-858): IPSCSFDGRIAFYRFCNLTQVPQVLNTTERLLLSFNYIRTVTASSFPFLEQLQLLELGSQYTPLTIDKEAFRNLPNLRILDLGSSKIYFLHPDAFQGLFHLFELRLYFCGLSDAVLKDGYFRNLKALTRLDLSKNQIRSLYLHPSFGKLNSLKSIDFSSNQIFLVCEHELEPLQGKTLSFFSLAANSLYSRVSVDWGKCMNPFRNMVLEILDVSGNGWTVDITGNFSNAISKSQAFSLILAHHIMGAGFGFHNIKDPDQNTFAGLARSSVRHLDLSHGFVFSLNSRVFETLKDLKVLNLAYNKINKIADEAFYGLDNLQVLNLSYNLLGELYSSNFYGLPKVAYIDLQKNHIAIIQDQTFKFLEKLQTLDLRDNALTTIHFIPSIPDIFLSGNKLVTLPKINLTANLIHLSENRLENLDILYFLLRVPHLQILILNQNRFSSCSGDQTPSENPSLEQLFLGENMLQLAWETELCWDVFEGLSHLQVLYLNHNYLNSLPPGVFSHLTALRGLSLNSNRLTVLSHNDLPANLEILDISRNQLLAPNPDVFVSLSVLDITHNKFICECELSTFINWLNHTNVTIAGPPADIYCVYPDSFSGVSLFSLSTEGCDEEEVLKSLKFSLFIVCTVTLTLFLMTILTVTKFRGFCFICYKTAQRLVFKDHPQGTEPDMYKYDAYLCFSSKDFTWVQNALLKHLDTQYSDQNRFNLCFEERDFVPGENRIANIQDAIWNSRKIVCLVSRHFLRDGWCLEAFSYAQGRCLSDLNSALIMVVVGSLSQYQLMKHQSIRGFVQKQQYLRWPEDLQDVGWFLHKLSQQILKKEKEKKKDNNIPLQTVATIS
T4 sequence (O60603 21-784): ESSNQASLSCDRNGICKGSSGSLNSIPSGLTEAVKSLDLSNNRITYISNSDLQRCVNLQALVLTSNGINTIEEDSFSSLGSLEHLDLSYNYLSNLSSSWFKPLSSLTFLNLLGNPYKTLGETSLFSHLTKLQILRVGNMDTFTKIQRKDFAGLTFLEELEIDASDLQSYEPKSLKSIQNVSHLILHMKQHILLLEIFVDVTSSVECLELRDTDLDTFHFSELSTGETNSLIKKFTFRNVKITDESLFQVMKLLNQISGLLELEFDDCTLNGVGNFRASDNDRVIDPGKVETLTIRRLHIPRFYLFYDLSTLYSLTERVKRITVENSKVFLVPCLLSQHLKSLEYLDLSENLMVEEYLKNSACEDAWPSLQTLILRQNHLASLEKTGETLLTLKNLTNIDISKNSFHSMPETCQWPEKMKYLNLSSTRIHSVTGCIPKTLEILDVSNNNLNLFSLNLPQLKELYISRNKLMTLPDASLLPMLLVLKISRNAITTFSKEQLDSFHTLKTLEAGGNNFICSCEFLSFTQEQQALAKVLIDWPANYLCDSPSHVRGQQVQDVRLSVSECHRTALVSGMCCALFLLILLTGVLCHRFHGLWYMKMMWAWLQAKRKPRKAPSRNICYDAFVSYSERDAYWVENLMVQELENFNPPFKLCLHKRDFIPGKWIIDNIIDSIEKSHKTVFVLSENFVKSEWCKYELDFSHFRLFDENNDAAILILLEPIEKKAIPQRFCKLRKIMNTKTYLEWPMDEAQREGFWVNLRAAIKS

Row | Compound | stimulatory effect on human TLR7 (human TLR7) | stimulatory effect on human TLR5 (human TLR5) | stimulatory effect on human TLR3 (human TLR3) | stimulatory effect on human TLR2 (human TLR2) | serum tetanus toxoid antibody titers compared to the vehicle treated group ([1]; 30 mg/kg (6 days of treatment) and 60 mg/kg (3 days of treatment), day 38, FIG. 3) | serum interferon-g compared to the vehicle treated group ([1]; high dose group 60 mg/kg, day 30, FIG. 4) | tumor volume (B16 tumors; B16 tumors in C57BL/6 mice, treatment from day 6, FIG. 5) | survival (B16 tumors; NTR001 as single agent (30 mg/kg PO week on/off; 5 mg/kg drinking water 28 days), FIG. 6) | weight loss [2]
1 | OC[C@H]1O[C@@H](n2cnc3c(O)ncnc32)[C@H](O)[C@@H]1O [Inosine] | do not exhibit a stimulatory effect | do not exhibit a stimulatory effect | do not exhibit a stimulatory effect | do not exhibit a stimulatory effect | – | – | – | – | –
2 | O=c1[nH]cnc2c([C@@H]3N[C@H](CO)[C@@H](O)[C@H]3O)c[nH]c12 [NTR001, 7-[(2S,3S,4R,5R)-3,4-dihydroxy-5-(hydroxymethyl)-2-pyrrolidinyl]-1,5-dihydro-4H-pyrrolo [3,2-d]pyrimidin-4-one] | do not exhibit a stimulatory effect | do not exhibit a stimulatory effect | do not exhibit a stimulatory effect | do not exhibit a stimulatory effect | significantly elevated | elevated | significant decrease | 0-20% | significant decrease in weight loss
